Measured values as given in BindingDB's records for doi:10.1021/acs.jmedchem.5b01939 (University of Messina, 2016).
One block for each molecule: values may come before it.

Columns and labels:
[1] = target: T1, G protein-coupled receptor kinase 5 (Bos taurus, UniProt P43249); test: ChEBML_1612831
Protocol: (§1) Inhibition of bovine GRK5 assessed as decrease in phosphorylation of tubulin after 5 mins by SDS-PAGE analysis

[2] = target: T1, G protein-coupled receptor kinase 5; test: as §1
Rhodopsin kinase GRK1 [3] = target: T2, Rhodopsin kinase GRK1 (Bos taurus, UniProt P28327); test: (§2) Inhibition of bovine GRK1 (1 to 535 residues) assessed as decrease in phosphorylation of tubulin after 5 mins by SDS-PAGE analysis
T2 sequence (P28327 whole entry): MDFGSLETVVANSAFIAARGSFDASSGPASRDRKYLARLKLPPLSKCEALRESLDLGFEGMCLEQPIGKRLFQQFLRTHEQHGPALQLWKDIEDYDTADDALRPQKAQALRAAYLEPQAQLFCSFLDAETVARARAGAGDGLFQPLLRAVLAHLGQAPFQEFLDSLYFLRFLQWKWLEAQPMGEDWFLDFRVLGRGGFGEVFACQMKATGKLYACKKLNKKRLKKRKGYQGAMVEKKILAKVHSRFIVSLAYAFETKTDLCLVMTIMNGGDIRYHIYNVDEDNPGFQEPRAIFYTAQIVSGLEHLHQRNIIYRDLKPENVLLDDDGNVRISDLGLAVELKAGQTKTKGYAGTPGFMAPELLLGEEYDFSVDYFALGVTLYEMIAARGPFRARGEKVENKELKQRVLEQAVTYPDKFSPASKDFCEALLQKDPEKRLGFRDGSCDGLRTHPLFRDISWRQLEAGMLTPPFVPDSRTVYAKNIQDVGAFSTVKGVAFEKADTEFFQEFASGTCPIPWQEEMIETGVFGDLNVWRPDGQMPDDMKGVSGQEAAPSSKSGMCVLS

[4] = target: T1, G protein-coupled receptor kinase 5; test: Inhibition of C-terminal hexahistidine tagged bovine GRK5 (561 residues) assessed as decrease in phosphorylation of light-activated bovine rod outer segments preincubated for 30 mins followed by ATP addition
Rhodopsin kinase GRK1 [5] = target: T2, Rhodopsin kinase GRK1; test: Inhibition of C-terminal hexahistidine tagged bovine GRK1 (535 residues) assessed as decrease in phosphorylation of tubulin preincubated for 30 mins followed by ATP addition
[6] = target: T1, G protein-coupled receptor kinase 5; test: Inhibition of C-terminal hexahistidine tagged bovine GRK5 (561 residues) assessed as decrease in phosphorylation of tubulin preincubated for 30 mins followed by ATP addition
Rhodopsin kinase GRK1 [7] = target: T2, Rhodopsin kinase GRK1; test: Inhibition of C-terminal hexahistidine tagged bovine GRK1 (535 residues) assessed as decrease in phosphorylation of light-activated bovine rod outer segments preincubated for 30 mins followed by ATP addition
Rhodopsin kinase GRK1 [8] = target: T2, Rhodopsin kinase GRK1; test: ChEBML_1612830
Protocol: as §2

T1 sequence (P43249 whole entry): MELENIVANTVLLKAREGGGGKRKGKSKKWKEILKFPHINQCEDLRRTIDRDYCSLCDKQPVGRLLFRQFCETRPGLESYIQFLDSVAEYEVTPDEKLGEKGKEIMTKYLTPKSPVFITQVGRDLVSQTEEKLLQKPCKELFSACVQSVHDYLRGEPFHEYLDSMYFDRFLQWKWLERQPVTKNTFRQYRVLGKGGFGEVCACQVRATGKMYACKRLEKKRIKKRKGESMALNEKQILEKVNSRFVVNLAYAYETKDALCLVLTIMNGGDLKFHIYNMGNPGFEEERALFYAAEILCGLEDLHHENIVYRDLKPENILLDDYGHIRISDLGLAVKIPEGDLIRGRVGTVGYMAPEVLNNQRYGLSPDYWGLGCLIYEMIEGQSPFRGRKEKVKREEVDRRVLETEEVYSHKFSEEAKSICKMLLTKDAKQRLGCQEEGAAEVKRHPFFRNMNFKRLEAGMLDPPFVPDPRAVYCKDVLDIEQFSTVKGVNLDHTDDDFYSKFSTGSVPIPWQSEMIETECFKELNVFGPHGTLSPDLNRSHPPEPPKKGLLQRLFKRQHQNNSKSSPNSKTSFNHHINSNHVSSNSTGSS

IC50 [1]: 79.4 µM
SMILES: CC1=C(C(=O)Nc2ccc3[nH]ncc3c2)C(c2ccc(Cl)c(Cl)c2)CC(=O)N1 (centres undefined) [4-(3,4-Dichlorophenyl)-N-1H-indazol-5-yl-2-methyl-6-oxo-1,4,5,6-tetrahydropyridine-3-carboxamide]

IC50 [2]: 63.1 µM | IC50 (Rhodopsin kinase GRK1 [3]): 794 µM
SMILES: CC1=C(C(=O)Nc2ccc3[nH]ncc3c2)C(c2ccc3ccccc3c2)CC(=O)N1 (centres undefined) [N-(1H-indazol-5-yl)-2-methyl-4-(naphthalen-2-yl)-6-oxo-1,4,5,6-tetrahydropyridine-3-carboxamide]

IC50 [2]: 39.8 µM
SMILES: CC1=C(C(=O)Nc2cc(Cl)c3[nH]ncc3c2)C(c2ccc(C(F)(F)F)cc2)CC(=O)N1 (centres undefined) [N-(7-chloro-1H-indazol-5-yl)-2-methyl-6-oxo-4-[4-(trifluoromethyl)phenyl]-1,4,5,6-tetrahydropyridine-3-carboxamide]

SMILES: Fc1ccc([C@@H]2CCNC[C@H]2COc2ccc3c(c2)OCO3)cc1 [PAROXETINE]
IC50 [4]: 251 µM | IC50 (Rhodopsin kinase GRK1 [5]): 158 µM | IC50 [6]: 126 µM | IC50 (Rhodopsin kinase GRK1 [7]): 316 µM | IC50 (Rhodopsin kinase GRK1 [8]): 398 µM
